Measured values as given in patent US6352713B1, “Nutritional composition” (Drugtech Corporation, priority 1999, dated 2002).

What was measured:
[1] = pH of the solution/suspension of a composition in deionized water; format: physicochemical; conditions: ascorbic acid/calcium carbonate mixtures; amount equivalent to 50 mg ascorbic acid in 25 ml deionized water, stirred ten minutes
Experimental: As discussed herein, the pH of the present composition is measured by any suitable means well known to persons of ordinary skill in the art. […] Another non-limiting exemplary technique for measuring the pH of a dosage form is to use a glass mortar and pestle to grind one tablet until a finely divided uniform powder is obtained. The finely divided uniform powder is then added to an appropriate vessel and the pH is then determined as in manner of the preceding example.
To the beaker was added 25 ml of deionized water. The contents of the beaker were then vigorously stirred for ten minutes. The pH of the resultant solution/suspension was then measured.
To the beaker was added 25 ml of deionized water. The contents were then vigorously stirred for ten minutes. The pH of the resultant solution/suspension was then measured.
In comparison, a conventional chewable prenatal supplement containing 1000 IU of vitamin A, 400 IU of vitamin D3, 11 IU of vitamin E, 120 mg of vitamin C, 1 mg of folic acid, 2 mg of vitamin B1, 3 mg of riboflavin, 20 mg of niacin, 10 mg of vitamin B6, 12 mcg of vitamin B12 and 29 mg of iron was obtained. […] To the beaker was added 25 ml of deionized water. The contents were then vigorously stirred for ten minutes or until dissolved. The pH of the resultant solution/suspension was then measured.

[2] = cited from earlier work

Row | SMILES | pH Value [1] | share of dietary folic acid available to the body (bioavailability) [2]
1 | O=C1O[C@H]([C@@H](O)CO)C(O)=C1O [Ascorbic Acid] | 3.32 | –
2 | Nc1nc2ncc(CNc3ccc(C(=O)N[C@@H](CCC(=O)O)C(=O)O)cc3)nc2c(=O)[nH]1 [Folic acid, pteroylglutamic acid] | – | about half
